From PMC2363760, “A novel doxorubicin-glucuronide prodrug DOX-GA3 for tumour-selective chemotherapy: distribution and efficacy in experimental human ovarian cancer” (British Journal of Cancer, 2001)
pIC50: −log10 of the molar value. Like-named read-outs stand apart in the source and are kept apart here.

Tests used:
[1] = Stability of DOX-GA3 in stored control tissue homogenates and serum samples; type: in vitro ADME; conditions: up to 1 mM, up to 4 weeks at -20C (data not shown)
OVCAR-3 xenografts = conditions: for Weight loss / TD14 (tumour volume doubling time from a relative volume of 1 to 4) / Weight day 14: DOX 8 or DOX-GA3 500 mg kg-1 i.v. days 0,7; for GI % (maximum growth inhibition): DOX 8 or DOX-GA3 500 mg kg-1 i.v. weekly x 2
OVCAR-3 cells = experiment: In vitro antiproliferative effects in OVCAR-3 cells (sulforhodamine B, 72 h); type: cell-based, human; conditions: for pIC50: 72 h
[2] = Maximum tolerated dose in OVCAR-3-bearing nude mice
human β-glucuronidase = molecular target: T1, human β-glucuronidase (Homo sapiens, UniProt P08236); conditions: pH 6.8, 37C, enzyme 1 g ml-1, 30 min, direct linear plots
T1 sequence (P08236 23-651): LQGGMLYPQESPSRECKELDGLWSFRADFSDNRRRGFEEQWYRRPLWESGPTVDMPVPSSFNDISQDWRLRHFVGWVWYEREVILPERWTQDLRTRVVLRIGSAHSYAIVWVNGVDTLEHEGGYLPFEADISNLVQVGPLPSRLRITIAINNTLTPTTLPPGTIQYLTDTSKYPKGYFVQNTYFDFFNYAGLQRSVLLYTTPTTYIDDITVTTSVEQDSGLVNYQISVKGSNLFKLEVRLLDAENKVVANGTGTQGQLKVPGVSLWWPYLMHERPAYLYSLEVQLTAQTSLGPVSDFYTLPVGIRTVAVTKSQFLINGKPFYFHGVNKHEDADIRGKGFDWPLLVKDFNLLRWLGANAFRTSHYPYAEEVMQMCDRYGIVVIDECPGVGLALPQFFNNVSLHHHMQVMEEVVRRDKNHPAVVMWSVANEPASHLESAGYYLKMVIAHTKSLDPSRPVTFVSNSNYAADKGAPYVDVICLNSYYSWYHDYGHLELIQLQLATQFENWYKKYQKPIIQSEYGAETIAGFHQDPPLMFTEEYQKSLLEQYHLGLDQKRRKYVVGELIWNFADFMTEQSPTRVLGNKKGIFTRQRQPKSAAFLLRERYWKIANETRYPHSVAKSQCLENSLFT

[3] = In vivo stability of the prodrug in non-tumour bearing mice; conditions: DOX-GA3 250 mg kg-1, t = 30 min
β-glucuronidase [4] = experiment: Inhibition of β-glucuronidase activity by saccharolactone in samples; type: biochemical; conditions: 1 mM (data not shown)
β-glucuronidase [5] = conditions: ref Tomino and Paigen, 1975; cited from earlier work
[6] = DOX-GA3 250 mg kg-1 vs DOX 8 mg kg-1
[7] = after DOX 8 mg kg-1 or DOX-GA3 250 mg kg-1 i.v.

COc1cccc2c1C(=O)c1c(O)c3c(c(O)c1C2=O)C[C@@](O)(C(=O)CO)C[C@@H]3O[C@H]1C[C@H](NC(=O)OCc2ccc(NC(=O)O[C@@H]3O[C@H](C(=O)O)[C@@H](O)[C@H](O)[C@H]3O)cc2)[C@H](O)[C@H](C)O1 [DOX-GA3, N -[4-doxorubicin-N -carbonyl (oxymethyl)phenyl] O -β-glucuronyl carbamate]
tumour AUC of DOX, fold higher after DOX-GA3 than after DOX (DOX at MTD, prodrug at half of MTD): 10 fold
times lower peak plasma concentration of DOX than after DOX (DOX-GA3 250 mg kg-1 i.v. vs DOX 8 mg kg-1 i.v.): 7.6 times
prodrug peak concentration in plasma (DOX-GA3 250 mg kg-1 i.v., t = 1 min): 1370 nmol/mL
peak of DOX-GA3 in OVCAR-3 tumour tissue (DOX-GA3 250 mg kg-1 i.v., t = 30 min): 44.0 nmol/g
fold higher DOX peak concentration in tumour than after DOX [6]: ~5 fold
fold lower peak DOX concentration in normal tissues (heart) than after DOX [6]: up to 5 fold
DOX peak concentration in OVCAR-3 tumour tissue (after DOX 8 mg kg-1 (t = 1 min) or DOX-GA3 250 mg kg-1 (t = 2 h) i.v.): 9.57 nmol/g
DOX peak concentration in heart [7]: 3.27 nmol/g
DOX peak concentration in kidney [7]: 70.8 nmol/g
DOX peak concentration in liver [7]: 14.2 nmol/g
DOX peak concentration in plasma [7]: 2.17 nmol/mL
drug targeting index (DTI), heart tissue (tumour vs heart): 31.4
drug targeting index (DTI), plasma (tumour vs plasma (surrogate for bone marrow)): 81.4
ratio of drug/prodrug in plasma (tumour-bearing animals, DOX-GA3 250 mg kg-1): 0.002
activation to doxorubicin on storage [1]: less than 0.1%
specific growth delay (SGD) (OVCAR-3 xenografts; larger tumours (mean 400 mm3), 500 mg kg-1 i.v. weekly x 2): 3.9
Weight loss (OVCAR-3 xenografts; larger tumours (mean 400 mm3)): 9.6%
GI % (maximum growth inhibition) (OVCAR-3 xenografts; larger tumours (mean 400 mm3)): 88%
TD14 (tumour volume doubling time from a relative volume of 1 to 4) (OVCAR-3 xenografts; larger tumours): 75.1 days
Weight day 14 (OVCAR-3 xenografts; larger tumours): 91.9%
Weight loss (OVCAR-3 xenografts; small tumours (mean 125 mm3)): 5.1%
GI % (maximum growth inhibition) (OVCAR-3 xenografts; small tumours (mean 125 mm3)): 87%
TD14 (tumour volume doubling time from a relative volume of 1 to 4) (OVCAR-3 xenografts; small tumours): 32.4 days
Weight day 14 (OVCAR-3 xenografts; small tumours): 99.0%
times less capable of inhibiting cell growth than DOX (OVCAR-3 cells): more than 100 times
pIC50 (OVCAR-3 cells): 4.66
maximum weight loss at MTD ([2]; 500 mg kg-1 i.v. weekly x 2): approximately 10%
toxic deaths at MTD ([2]; 500 mg kg-1 i.v. weekly x 2): No toxic deaths occurred
molar amount that could be administered at an equitoxic dose, compared with parent drug ([2]; DOX-GA3 500 mg kg-1 x 2 vs DOX 8 mg kg-1 x 2): 38 fold
MTD ([2]; i.v. weekly x 2, OVCAR-3-bearing mice): 500 mg/kg
Km (human β-glucuronidase): 1100 µM
Vmax (human β-glucuronidase): 25.0 μmol min^–1mg^–1
drug/prodrug ratio in plasma [3]: 0.001

COc1cccc2c1C(=O)c1c(O)c3c(c(O)c1C2=O)C[C@@](O)(C(=O)CO)C[C@@H]3O[C@H]1C[C@H](N)[C@H](O)[C@H](C)O1 [DOX, Doxorubicin]
heart AUC of DOX, fold higher after DOX than after prodrug (nude, mouse, in vivo): 3.1 fold
kidney AUC of DOX, times lower after DOX than after prodrug (nude, mouse, in vivo): 2.0 times
liver AUC of DOX, fold higher after DOX than after prodrug (nude, mouse, in vivo): 1.8 fold
GI % (maximum growth inhibition) (OVCAR-3 xenografts; larger tumours (mean 400 mm3)): 52%
TD14 (tumour volume doubling time from a relative volume of 1 to 4) (OVCAR-3 xenografts; larger tumours): 21.5 days
GI % (maximum growth inhibition) (OVCAR-3 xenografts; small tumours (mean 125 mm3)): 56%
TD14 (tumour volume doubling time from a relative volume of 1 to 4) (OVCAR-3 xenografts; small tumours): 11.5 days
pIC50 (OVCAR-3 cells; Homo sapiens): 6.92

O.O=C(O)[C@@H](O)[C@H]1OC(=O)[C@H](O)[C@H]1O [Saccharolactone, D-glucaric acid-1,4-lactone monohydrate]
activity of the enzyme abolished (β-glucuronidase [4]): > 99%

O=C(O)[C@H]1O[C@@H](Oc2ccc([N+](=O)[O-])cc2)[C@H](O)[C@@H](O)[C@@H]1O [4-nitrophenyl-glucuronide]
Km (β-glucuronidase [5]): 1300 µM
